Patent publication US8906955B2, “Use of adrenergic beta-3-receptor agonists in anti-aging” (priority 2012, dated 2014)

Columns and labels:
[1] = tested on: rat myocardial infarction models; test: Rat myocardial infarction (heart failure) model: B-ultrasonography, tunel apoptosis, LVW/BW; format: in vivo; conditions: 1 mg/kg/day intraperitoneally, 4 weeks
Description: (§1) In rat myocardial infarction models, activation of the β-3 receptor could increase level of SIRT1 in cardiomyocyte, inhibit expression of p53, improve the cardiac function and achieve anti-apoptosis effect. The myocardial infarction model was created by ligation of anterior descending branch of rat left coronary artery. BRL37344 was intraperitoneally injected at 1 mg/kg/day, and heart B-ultrasonography was performed after 4 weeks. Heart tissue was determined for apoptosis (tunel method) and expression levels of SIRT1 and p53 (western blot). The ratio of left ventricular weight to body weight (LVW/BW) is determined. It can be seen from the results shown in FIGS. 3 to 5, that BRL37344 decreases p53 expression, cardiac cell apoptosis, and value of LVW/BW of heart failure rat, increases SIRT1 expression, alleviate cardiac hypertrophy and improve cardiac function.

p53 [2] = test: Western blot of p53 in heart tissue of myocardial infarction rats; format: in vivo; conditions: heart failure rat, 1 mg/kg/day intraperitoneally, 4 weeks
Description: as §1

SIRT1 [3] = test: Western blot of SIRT1 in heart tissue of myocardial infarction rats; format: in vivo; conditions: heart failure rat, 1 mg/kg/day intraperitoneally, 4 weeks
Description: as §1

[4] = tested on: adipose-derived stem cells of rats; test: β-Galactosidase staining of adipose-derived stem cells; format: cell-based, rat; conditions: 10^−7 M, 24 h, compared with SR59230A
Description: Blockage of the β-3 receptor could increase level of β-galactosidase in adipose-derived stem cells and promote stem cell aging. BRL37344 and SR59230A were used to treat adipose-derived stem cells of rats each at 10^−7 M. After 24 h, cells were fixed using paraformaldehyde, and stained and photographed according to the specification of β-Galactosidase Staining Kit. BRL37344 decreases the level of β-galactosidase in adipose-derived stem cells compared with SR59230A, indicating agonisting of adrenergic β3 receptors of adipose-derived stem cells achieves anti-aging effect.

mTOR/Rictor complex = test: Western blot of mTOR/Rictor complex; format: cell-based; conditions: rat cardiomyocyte, 10^−7 M, 24 h, compared to control shRNA
Description: Activation of the β3 receptor could increase mTOR/Rictor complex in […]. shRNA of β3 adrenergic receptor, control shRNA, BRL37344 and SR59230A was used to treat rat cardiomyocyte each at 10^−7 M. After 24 h, total protein was extracted and subjected to western blot to determine the expression amount of mTOR and Rictor proteins.

SIRT1 [5] = test: Quantitative PCR of SIRT1 in organs of aging rats; format: in vivo; conditions: 12-month male SD rats, 100 nmol per rat intraperitoneally, qd, 2 weeks, vs control group
Source text: (§2) Activation of the β3 receptor could increase the expression of SIRT1, SIRT3 and SIRT4 in heart, liver, brain, kidney and aorta of aging rats. Twenty 12-month male SD rats were randomly divided into 2 groups. The rats were intraperitoneally injected with BRL37344 at 100 nmol for each rat, qd, 2 weeks. The rats in control group were administrated with solvents of same volume. The rats were sacrificed to obtain heart, liver, brain, kidney and aorta, followed by total RNA extraction. The RNA was then reversely transcribed, followed by quantitative PCR to detect gene expression of SIRT1, SIRT3 and SIRT4. Compared to the control group, BRL37344 increases the expression of SIRT1, SIRT3 and SIRT4 in heart, liver, brain, kidney and aorta.

SIRT3 = test: Quantitative PCR of SIRT3 in organs of aging rats; format: in vivo; conditions: 12-month male SD rats, 100 nmol per rat intraperitoneally, qd, 2 weeks, vs control group
Source text: as §2

SIRT4 = test: Quantitative PCR of SIRT4 in organs of aging rats; format: in vivo; conditions: 12-month male SD rats, 100 nmol per rat intraperitoneally, qd, 2 weeks, vs control group
Source text: as §2

MCF7 cells [6] = test: JC-1 flow cytometry of mitochondrial membrane potential; format: cell-based; conditions: 10^−7 M
Description: (§3) Activation of the β3 receptor could increase mitochondrial content of MCF7 cells. BRL37344 and SR59230A were used to treat MCF7 cells and naked tumor-bearing rats each at 10^−7 M. The amount of mitochondrion was determined by MitoTracker probes. Mitochondrial membrane potential was determinded by JC1. The ROS content of the cells was determined by fluorescence probe H2DCFDA. ATP level was determined by ATP kit. MDC staining was determined by flowcytometer. GFP-LC3 eukaryotic expression vectors were used for transfection. […] BRL37344 protected mitochondrial membrane potential (FIG. 10), reduced intracellular ROS content (FIG. 11), and increased intracellular ATP level (FIG. 12).

MCF7 cells [7] = test: H2DCFDA flow cytometry of reactive oxygen species; format: cell-based; conditions: 10^−7 M, fluorescence probe H2DCFDA
Description: as §3

naked tumor-bearing rats = test: ATP content by ATP kit in tumor tissue of naked tumor-bearing rats; format: in vivo, rat; conditions: 10^−7 M
Description: as §3

cardiomyocyte = test: Lipofuscin in cardiomyocyte under confocal microscope; format: cell-based, rat; conditions: 10^−7 M, 10 days
Source text: Beta-3 receptor reduced amount of lipofuscin in cardiomyocyte. BRL37344 and SR59230A were used to treat cardiomyocyte each at 10^−7 M. After 10 days, cells were observed under confocal microscope for lipofuscin.

mTOR/α-Tubulin = mTOR/α-Tubulin double staining in cardiac fibroblast; format: cell-based, rat; conditions: cardiac fibroblast of rats, 10^−7 M, confocal microscope
Source text: (§4) Beta-3 receptor promoted binding of mTORC2 to α-Tubulin in spindle apparatus. BRL37344 was used to treat cardiac fibroblast of rats at 10^−7 M. The cells were undergone mTOR/α-Tubulin immunohistochemical double staining and Rictor/α-Tubulin immunofluorescence double staining, and observed under confocal microscope.

Rictor/α-Tubulin = Rictor/α-Tubulin immunofluorescence double staining in cardiac fibroblast; format: cell-based, rat; conditions: cardiac fibroblast of rats, 10^−7 M, confocal microscope
Source text: as §4

p53 [8] = test: Western blot of p53 in MCF-7 cells treated with SR59230A; format: cell-based; conditions: 24 h, with increasing SR59230A concentration, western blot vs GAPDH
Description: (§5) MCF-7 cells were treated with SR59230A at different concentrations. After 24 h, the cells were lysed to extract total protein. The protein concentration was determined by BCA method. 10 μg of the protein was used to perform 10% SDS PAGE, and then transferred to a PVDF membrane. The membrane was blocked for 1 h with TBST (10 mmol/L Tris HCl, pH 7.5, 150 mmol/L NaCl, 0.1% Tween 20) containing 4% fat-free milk, and incubated overnight with p53 antibody (1:1000) and SIRT1 antibody (1:1000) at 4° C. The membrane was further incubated with secondary antibodies for 1 h after washing, followed by ECL color development. The same procedure is repeated 3 times. The gray values of protein bands were obtained through Fluorchem 8900 software and the ratio of target band to reference band (GAPDH) was calculated. Results are shown in FIGS. 1 and 2, wherein the expression level of p53 is increased as the increase of SR59230A concentration, while SIRT1 is decreased.

SIRT1 [9] = test: Western blot of SIRT1 in MCF-7 cells treated with SR59230A; format: cell-based; conditions: 24 h, with increasing SR59230A concentration, western blot vs GAPDH
Description: as §5

MCF7 cells [10] = test: MitoTracker/LC3B immunofluorescence double staining (mitochondrion content, mitophagy); format: cell-based; conditions: 10^−7 M
Description: as §3

MCF7 cells [11] = test: MDC staining by flowcytometer; format: cell-based; conditions: 10^−7 M
Description: as §3

MCF7 cells [12] = test: GFP-LC3 eukaryotic expression vector transfection; format: cell-based; conditions: 10^−7 M, GFP-LC3 transfected cells
Description: as §3

For `C[C@H](Cc1ccc(OCC(=O)O)cc1)NC[C@H](O)c1cccc(Cl)c1` [BRL37344], the cardiac hypertrophy [1] was “alleviate”, the “ratio of left ventricular weight to body weight (LVW/BW)” value [1] was “decreases” and the cardiac function ([1]; heart B-ultrasonography, 1 mg/kg/day) was “improve”. The cardiac cell apoptosis ([1]; tunel method, 1 mg/kg/day) was “decreases”, the “p53 expression in rat myocardia” value (p53 [2]) was “decreases” and the “SIRT1 expression in rat myocardia” value (SIRT1 [3]) was “increases”. For the same compound, the “level of β-galactosidase in adipose-derived stem cells” value [4] was “decreases”, the mTOR/Rictor complex (mTOR/Rictor complex) was “increases” and the “expression of SIRT1 in heart, liver, brain, kidney and aorta” value (SIRT1 [5]) was “increases”. The “expression of SIRT3 in heart, liver, brain, kidney and aorta” value (SIRT3) was “increases”, the “expression of SIRT4 in heart, liver, brain, kidney and aorta” value (SIRT4) was “increases” and the mitochondrial membrane potential (MCF7 cells [6]) was “protected”. For the same compound, the “intracellular ROS content” value (MCF7 cells [7]) was “reduced”, the “intracellular ATP level” value (naked tumor-bearing rats) was “increased” and the lipofuscin in cardiomyocyte (cardiomyocyte) was “significantly reduced”. The “binding of mTOR to α-Tubulin in spindle apparatus” value (mTOR/α-Tubulin) was “promoted” and the “binding of Rictor to α-Tubulin” value (Rictor/α-Tubulin) was “promoted”.

In the case of `CCc1ccccc1OC[C@@H](O)CN[C@H]1CCCc2ccccc21` [SR59230A], the “expression level of p53” value (p53 [8]) is reported as “increased”, the “expression level of SIRT1” value (SIRT1 [9]) is reported as “decreased” and the content of mitochondrion (MCF7 cells [10]; MitoTracker probes) is reported as “decreases”. The mitophagy (MCF7 cells [10]; MitoTracker/LC3B double staining) was “enhance”, the mitochondrial membrane potential (MCF7 cells [6]) was “damaged” and the MDC staining (MCF7 cells [11]) was “increased”. The GFP-LC3 fluorescent spots (MCF7 cells [12]) was “promoted to form many bright and green fluorescent spots”.
